We go through 18 molecules from patent US20260216134A1, “CHARGED PI-CONJUGATED MOLECULES FOR THE TREATMENT OF MICROBIAL INFECTIONS” (priority 2023, published 2026).

For orientation: IC50 means the concentration at which inhibition is half-maximal.

Where two headings read alike, the source gives them in different places.

A short description of series [1]: Crystal violet cytotoxicity test in A375 cells without light activation. It counts as cell-based, human. The settings on record: human. On the procedure:
(§1) The inhibitory concentration of charged pi-conjugated compounds needed to inhibit the cell growth by 50% (toxicity IC50).
(§2) Most of the charged pi-conjugated compounds are aminocyanines which are functionalized with alkyl amine group. The charged pi-conjugated compounds were added to cell cultures of A375 cancer cells (human melanoma) and their cytotoxicity was quantified by the crystal violet test and/or clonogenic assays for cell viability. […] The longer the exposure the most cytotoxic the charged pi-conjugated compounds are towards A375 cells. […] The same behavior is observed: the longer the exposure, the more cytotoxic. All molecules presented here are aminocyanines except GL-261-2 which is a carboxyl-cyanine. […] This was the first time a therapeutic window of concentration that can be tuned to selectively kill cancer and/or protect cells was suspected. In finding this therapeutic window concentration and time of exposure are important variables that should be fine tuned.
(§3) Based on the finding described above, a larger set of charged pi-conjugated compounds was evaluated for cytotoxicity against A375 cancer cells as shown in FIG. 25 and FIG. 26.
(§4) The IC50 is the concentration needed to inhibit the cell viability by 50%. These molecules in FIG. 25 and FIG. 26 were evaluated by crystal violet assay and using 2 days of exposure.

Series [2] is described as follows: Clonogenic assay cytotoxicity in A375 cells without light. The class given is cell-based, human. The settings on record: human. On the procedure:
(§5) FIGS. 28A-28B provide a summary of the evidence of the cytotoxicity of charged pi-conjugated compounds without light. Toxicity was measured using clonogenic assay with 7 hours of incubation (contact time between molecules and A375 cells) and 7 days for colony formation. (FIG. 28A) The lethal concentration of the cyanine molecules to kill 50% of the A375 cells (Tox LC50) without light activation. (FIG. 28B) Chemical structure of exemplary charged pi-conjugated compounds. On average, 300 cells equal to 300 colonies were seeded and analyzed for each data point.
(§6) Both properties were measured using clonogenic assay with 7 hours of incubation (contact time between molecules and A375 cells) and 7 days for colony formation. 300 cells were seeded and analyzed for each data point.
(§7) More cytotoxicity tests were conducted in some additional molecules and using clonogenic assay for cell viability (FIG. 28). A375 cells were exposed to charged pi-conjugated compounds for 7 hours, in contrast to the previously presented assays which were conducted with crystal violet assay and 2 days of exposure. The data points showing the cytotoxicity quantification for each individual molecule are presented in FIG. 29, with resulting IC50 values summarized in Table 4.

Series [3] deals with A375 cancer cells (melanoma). As to the kind of experiment: Crystal violet cytotoxicity test in A375 cells without light activation. It counts as cell-based, human. On the procedure:
as §1, §2, §3, §4

In series [4] the test system is A375 cancer cells (melanoma). As to the kind of experiment: Clonogenic assay cytotoxicity in A375 cells without light. It counts as cell-based, human. On the procedure:
as §5, §6, §7

For another series, the system named is S. aureus. As to the kind of experiment: Time-kill of combinations at 0.5×MIC. The settings on record: 0.5×MIC of individual agent, after 12 h of treatment. The class given is cell-based, Staphylococcus aureus.
The subject of another series is Gram-positive strains. As to the kind of experiment: MIC / MIC50 by broth microdilution in panel of Gram-positive strains. The class given is cell-based. The settings on record: MIC50 over all Gram-positive strains tested (Table 2). On the procedure:
Antibacterial activity was assessed by determining the minimal inhibitory concentration (MIC) and the minimal bactericidal concentrations (MBC) and by monitoring time-dependent bacterial killing of exponentially growing cells. Bacterial cell suspensions (OD600≈0.02 in cation-adjusted Muller-Hinton Broth) were treated with increasing concentrations of the different molecules. The minimal inhibitory concentration (MIC) was defined as the minimal concentration of the molecule resulting in complete bacterial growth arrest. The minimal bactericidal concentration (MBC) was defined as the lowest concentration of the molecule that killed 99.9% of the inoculum. A molecule was determined to be bactericidal if the ratio of the MBC to the MIC was less than 4 to 6. […] In M. smegmatis, the antibacterial activity of charged pi-conjugated compounds was generally lower.
The MIC values for all Gram-positive strains tested (Table 2) were used to calculate the MIC50, i.e., the minimum inhibitory concentration needed to inhibit the growth of 50% of the tested isolates (FIG. 5A). […] When the average MIC50 values were evaluated, the most susceptible bacterial genera were Streptococcus sp., followed by Staphylococcus sp. In contrast, Propionibacterium sp. had the highest average MIC50 (FIG. 5B).
The broth microdilution method was used to determine the MIC of charged pi-conjugated compounds according to the CLSI guidelines. Charged pi-conjugated compound stock solutions (16 mM) were prepared in dimethyl sulfoxide (DMSO). Serial twofold dilutions of the charged pi-conjugated compounds were freshly prepared using the appropriate liquid media (Table 2), and 100 μL of each dilution was added to the appropriate wells of 96-well microtiter plates. The bacterial inoculum was further diluted in liquid media, and 100 μL was added to each well, resulting in a final cell density of ≈5×10^5 CFU mL^−1. […] A molecule was determined to be bactericidal if the ratio of the MBC to the MIC was less than 4 to 6. […]

[5] abbreviates: crystal violet assay, 2 days of exposure, without light activation, read-out: IC50 (μM), cytotoxicity to A375 cancer cells.
[6] abbreviates: clonogenic assay, 7 hours of exposure, 7 days colony formation, without light, read-out: IC50 (μM), cytotoxicity to A375 cancer cells.

`COC(=O)C(/C=C/C=C1/N(C)c2ccc3ccccc3c2C1(C)C)=C(C)\C=C\C1=[N+](CCCCCCN(C)C)c2ccc3ccccc3c2C1(C)C` [GL-297-2] returned an IC50 at 2 days in series [1] of 1 µM. Besides, the IC50 at 7 h in series [2] was determined as 0.45 µM. `CN(C)CCCCCC[N+]1=C(/C=C/C=C/C=C/C=C2/N(C)c3ccc4ccccc4c3C2(C)C)C(C)(C)c2c1ccc1ccccc21` [GL-291-2] registered an IC50 at 2 days in series [1] of 1.5 µM. The “cytotoxicity at long exposure” value in series [3] is on record as “showed cytotoxicity”.

In the case of `C[N+]1=C(/C=C/C2=CC(=C/C=C3/N(CCCCCC(=O)NCCCCCCN)c4ccccc4C3(C)C)/CCC2)C(C)(C)c2ccccc21` [Cy7-amine], the results for the IC50 in series [3] and in series [4] were 2 µM and 0.75 µM, respectively. Take `CN(C)CC[N+]1=C(/C=C/C=C/C=C/C=C2/N(C)c3ccc4ccccc4c3C2(C)C)C(C)(C)c2c1ccc1ccccc21` [GL-308-2]: inhibition in series [1] was half-maximal at 0.5 µM (IC50 at 2 days). In the case of `CN1/C(=C/C=C2C=C(/C=C/C3=[N+](C)c4ccc5ccccc5c4C3(C)C)CCC/2)C(C)(C)c2c1ccc1ccccc21` [BL-141-1, 1,1,3-trimethyl-2-((E)-2-((E)-3-((E)-2-(1,1,3-trimethyl-1,3-dihydro-2H-benzo[e]indol-2-ylidene)ethylidene)cyclohex-1-en-1-yl)vinyl)-1H-benzo[e]indol-3-ium], the IC50 is 0.125 µM in series [3] (setting [5]) and 0.14 µM in series [4] (setting [6]). As for `CCCCCCCCCC(=O)N[C@@H](Cc1c[nH]c2ccccc12)C(=O)N[C@H](CC(N)=O)C(=O)N[C@@H](CC(=O)O)C(=O)N[C@@H]1C(=O)NCC(=O)N[C@@H](CCCN)C(=O)N[C@@H](CC(=O)O)C(=O)N[C@H](C)C(=O)N[C@@H](CC(=O)O)C(=O)NCC(=O)N[C@H](CO)C(=O)N[C@@H]([C@H](C)CC(=O)O)C(=O)N[C@@H](CC(=O)c2ccccc2N)C(=O)O[C@@H]1C` [daptomycin], in the series with S. aureus, the “maximum reduction in bacterial population size” value is “≈ 3 log10”.

Turning to `CN1/C(=C/C=C2C=C(/C=C/C3=[N+](CCCCCC(=O)O)c4ccc5ccccc5c4C3(C)C)CCC/2)C(C)(C)c2c1ccc1ccccc21` [BL-242, 3-(5-carboxypentyl)-1,1-dimethyl-2-((E)-2-((E)-3-((E)-2-(1,1,3-trimethyl-1,3-dihydro-2H-benzo[e]indol-2-ylidene)ethylidene)cyclohex-1-en-1-yl)vinyl)-1H-benzo[e]indol-3-ium], in series [2], the IC50 at 7 h was determined as 2 µM.

Regarding `CN(C)CC[N+]1=C(/C=C/C2=CC(=C/C=C3/N(C)c4ccc5ccccc5c4C3(C)C)/CC(C(C)(C)C)C2)C(C)(C)c2c1ccc1ccccc21` (stereo not shown) [GL-349-2], inhibition in series [1] was half-maximal at 0.3 µM (IC50 at 2 days). As for `CN1/C(=C/C=C/C=C/C=C/C2=[N+](CCCCCC(=O)O)c3ccc4ccccc4c3C2(C)C)C(C)(C)c2c1ccc1ccccc21` [GL-261-2], in series [1] (setting [5]), the IC50 at 2 days stood at 2 µM. The “cytotoxicity at short exposure” value in series [3] (A375, exposure ~30-50 min) is “safe and showed low cytotoxicity”. In series [3] (~50 min exposure, 1-4 μM), the “effect toward A375 cells at short exposure” value is “protective effect”. The IC50 at 7 h in series [2] (setting [6]) was found to be 5 µM. `C[N+]1=C(/C=C/C=C/C=C2/N(CCCCCC(=O)NCCCCCCN)c3ccc4ccccc4c3C2(C)C)C(C)(C)c2c1ccc1ccccc21.Cl.[Cl-]` [Cy5.5-amine]: in series [3], the IC50 stood at 2 µM; the “cytotoxicity at short exposure” value is “safe and showed low cytotoxicity”. In addition, the “antibacterial activity according to MIC50” value in the series with Gram-positive strains is reported as “strongest antibacterial activity”. In series [1], `CN(C)CCCCCCN1/C(=C/C=C2C=C(/C=C/C3=[N+](CCCCCCN(C)C)c4ccc5ccccc5c4C3(C)C)CCC/2)C(C)(C)c2c1ccc1ccccc21.[Br-]` [BL-142, 3-(6-(dimethylamino)hexyl)-2-((E)-2-((E)-3-((E)-2-(3-(6-(dimethylamino)hexyl)-1,1-dimethyl-1,3-dihydro-2H-benzo[e]indol-2-ylidene)ethylidene)cyclohex-1-en-1-yl)vinyl)-1,1-dimethyl-1H-benzo[e]indol-3-ium] returned an IC50 at 2 days of 2.5 µM. Moreover, in series [3], the “cytotoxicity at long exposure” value is listed as “showed cytotoxicity”. In the case of gramicidin, the “maximum reduction in bacterial population size” value in the series with S. aureus is on record as “≈ 3 log10”. For the molecule `CN1/C(=C/C=C/C=C/C=C/C2=[N+](C)c3ccc4ccccc4c3C2(C)C)C(C)(C)c2c1ccc1ccccc21` [GL-176], 0.25 µM corresponded to half-maximal inhibition in series [3] (IC50).

As for `CN1/C(=C/C=C/C=C/C=C/C2=[N+](CCCCCCN)c3ccc4ccccc4c3C2(C)C)C(C)(C)c2c1ccc1ccccc21` [GL-286], the IC50 at 2 days in series [1] (setting [5]) is 2.88 µM. In series [3] (1 day incubation, concentrations below 1 μM), the “cell viability at short incubation and low concentration” value is recorded as “can increase the cell viability”. In addition, in series [3] (A375, 1 day vs 2 days exposure), the “cytotoxicity at long exposure” value is listed as “showed cytotoxicity”. The IC50 at 7 h in series [2] (setting [6]) was 1 µM. For `C[N+]1=C(C=CC=CC=C2N(CCCCCC(=O)NCCCCCCN)c3ccccc3C2(C)C)C(C)(C)c2ccccc21` [Cy5-amine], in series [3], the IC50 came to 8 µM. In series [1], `CN1/C(=C/C=C/C=C/C=C/C2=[N+](CCCCCC[N+](C)(C)C)c3ccc4ccccc4c3C2(C)C)C(C)(C)c2c1ccc1ccccc21` [GL-328-2] gave an IC50 at 2 days of 7 µM. For `CC(=O)NCCCCCC[N+]1=C(/C=C/C=C/C=C/C=C2/N(C)c3ccc4ccccc4c3C2(C)C)C(C)(C)c2c1ccc1ccccc21` [GL-362-2], the midpoint of inhibition in series [2], the IC50 at 7 h, lay at 0.19 µM. Take `COC(=O)CCCCCN1/C(=C/C=C2C=C(/C=C/C3=[N+](CCCCCC(=O)OC)c4ccc5ccccc5c4C3(C)C)CCC/2)C(C)(C)c2c1ccc1ccccc21` [BL-246-1, 3-(6-methoxy-6-oxohexyl)-2-((E)-2-((E)-3-((E)-2-(3-(6-methoxy-6-oxohexyl)-1,1-dimethyl-1,3-dihydro-2H-benzo[e]indol-2-ylidene)ethylidene)cyclohex-1-en-1-yl)vinyl)-1,1-dimethyl-1H-benzo[e]indol-3-ium]: the IC50 at 7 h in series [2] was found to be 0.6 µM.
